SMILES strings stand for the structures.

A short description of this series: Human HepG2 cell viability assay in 384 well format. The settings on record: HepG2 cells, read-out: Inhibition. In kind it is toxicity, cell-based. Further details: dose 125 nL, time 70.5 hour; concentration not given beside the values.

On to `CCc1noc(C2CCCCN2C(=O)c2ccoc2C)n1` (stereo unspecified), for which the cytotoxicity at 70.5 h was found to be 9.18%.
For `COCCCNC(=O)CCn1nc(C)c2ccccc21`, the cytotoxicity at 70.5 h was -2.16%.
`Cc1nc(N2CCCC2)ncc1-c1cc(O)nc(N2CCCC2)n1`: the cytotoxicity at 70.5 h is -11.7%.
The figure for `CCN(CC)C(=O)CCn1ncc2c(Cl)cccc21` is -10.4%; for `COCc1nc(N(C)C)ncc1C(=O)NC(C)C` it is 12.7%.
In the case of `CCN(CC)C(=O)c1ccn(COc2ccccc2)n1`, the cytotoxicity at 70.5 h is -7.93%.
The figure for `Cc1ccc2cnn(CCC(=O)Nc3c(C)nn(C)c3C)c2c1` is -6.3%; for `Cc1nn(C)c(C)c1NC(=O)CCn1ncc2c(C)cccc21` it is -5.31%; for `CC(C(=O)N1CCc2ccccc2C1)n1cc(Br)cn1` (stereo unspecified) it is -13.3%.
With `Cc1cccc2c1cnn2CCCNC(=O)CCCC(=O)O` the figure was -4.18%; with `CCS(=O)(=O)Nc1ccn(Cc2cccc(Cl)c2)n1`, -4.96%; with `O=C(NC1=NCCCN1c1ccc(Cl)cc1)c1cccc(Cl)c1`, 9.24%.
The figure for `CCOc1ccc(N2CCCN=C2NC(=O)c2ccccc2C)cc1` is -12.8%; for `Cc1cc(C)nc(NC(=O)C(C)Oc2ccc3c(c2)OCO3)n1` (stereo unspecified) it is -11.4%; for `CSCc1cccc(S(=O)(=O)NCCCO)c1` it is -6.9%.
For `CSCc1cccc(S(=O)(=O)NCCCN2CCOCC2)c1`, the cytotoxicity at 70.5 h is -6.88%.
With `CCN1CCN(S(=O)(=O)c2cc(C)c(Cl)cc2Cl)CC1` the figure was 10.1%; with `CCC(C)c1noc(C2CCN(C(=O)c3cccs3)CC2)n1` (stereo unspecified), -10.7%; with `CCn1cc(Br)c(C(=O)NCc2cccnc2)n1`, -7.68%.
For `CC1CCN(c2ncc3c(n2)CN(c2ccc4c(c2)OCO4)C3=O)CC1`, the cytotoxicity at 70.5 h is -6.45%.
For `Cc1nc(C2CCCN2C(=O)CCc2ccc(F)cc2)ncc1C(N)=O` (stereo unspecified), the cytotoxicity at 70.5 h is -10.3%.
On to `Cc1cccc(C)c1NC(=O)c1n[nH]c(-n2cnnc2)n1`, for which the cytotoxicity at 70.5 h was -13.4%.
With `Cc1cc(N(C)C)nc(C2(C)CCCN2C(=O)c2cncnc2C)n1` (stereo unspecified) the figure was -10.8%; with `CNCC(=O)N1CCCCC1c1nccc(C)n1` (stereo unspecified), 16.2%.
In the case of `CC(=O)N1CCCC(c2ccc(C(=O)NC3CCCC3)cn2)C1` (stereo unspecified), the cytotoxicity at 70.5 h was -5.66%.
With `CC1CCN(C(=O)c2cnc(CC3CCCN(C)C3)cn2)CC1` (stereo unspecified) the figure was -9.3%.
With `CNc1cc(C2CCCN2Cc2ccc(OCC(=O)O)cc2)ccn1` (stereo unspecified) the figure was -5.44%; with `c1cncc(CN2CCCC(c3nnc(-c4cnccn4)o3)C2)c1` (stereo unspecified), -14%; with `c1cc(CN2CCCC(c3nnc(-c4cnccn4)o3)C2)ccn1` (stereo unspecified), -8.48%.
As to `c1cc(-c2nnc(C3CCCN(CC4CCCCC4)C3)o2)ccn1` (stereo unspecified), the cytotoxicity at 70.5 h was -5.12%.
The figure for `CC(=O)N1CCC(c2ccnc(Nc3ccc(C)cn3)n2)C1` (stereo unspecified) is 16%; for `O=C(Cc1ccccc1)N1CCOC(c2nc(-c3ncccn3)no2)C1` (stereo unspecified) it is -4.21%.
With `CCCC(=O)N1CCC(c2nc(O)c3c(n2)CCN(C2CCCC2)C3)C1` (stereo unspecified) the figure was -0.72%; with `CC(=O)NCC(=O)N1CCC(c2cncc(Oc3cccnc3)n2)CC1`, -9.15%; with `Cc1noc(C)c1C(=O)N1CCCC(c2c(C)c(=O)nc3n2CCC3)C1` (stereo unspecified), -9.85%.
As to `Cc1nc(CCC(=O)NC2CCC2)cc(C2CCCNC2)n1` (stereo unspecified), the cytotoxicity at 70.5 h is -9.96%.
As for `CN(C)C(=O)C1CN(Cc2cccs2)CCN(S(C)(=O)=O)C1` (stereo unspecified), the cytotoxicity at 70.5 h is -5.12%.
With `CN(Cc1ccc(F)cc1)CC1(O)CCN(C(=O)c2ccsc2)C1` (stereo unspecified) the figure was 9.08%; with `Cc1nn(C)cc1C(=O)N1CCCC(n2nnc3cc(F)ccc32)C1` (stereo unspecified), 11.8%; with `Cc1cc(-c2cnc(NCc3ccccn3)nc2C(C)C)on1`, -11.7%.
As to `COc1ccc(CNc2ncc(-c3cc(C)no3)c(C(C)C)n2)cc1`, the cytotoxicity at 70.5 h was -4.08%.
Turning to `Cc1nn(C)cc1CN1CCc2c(nc(-c3ccccn3)[nH]c2=O)C1`, the cytotoxicity at 70.5 h was -5.77%.
With `O=C(c1cncs1)N1CCC(c2cnccn2)CC1` the figure was -8.41%; with `CC(=O)N1CCC(Cc2nccnc2-c2c(C)n[nH]c2C)C1` (stereo unspecified), -8.33%.
For the compound `CC(C)N1CCC(c2nccnc2Nc2ncccn2)CC1`, the cytotoxicity at 70.5 h was -4.91%.
`CC(=O)N1CCN(CC(N)=O)CC(COc2ccccc2)C1` (stereo unspecified): the cytotoxicity at 70.5 h was 6.55%.
The figure for `COCC(=O)N1CCCC1c1cccc(Cc2ccccc2F)n1` (stereo unspecified) is -1.54%; for `CS(=O)(=O)N1CCCC(Cc2ccnc3ccncc23)CC1` (stereo unspecified) it is -0.73%; for `CC(C)CC(=O)N1CCN(Cc2cc(-c3ccncc3)nn2C)CC1` it is -3.33%.
The figure for `COCC(=O)N1CCN(Cc2cc(-c3ccncc3)nn2C)CC1` is -3.57%; for `CCS(=O)(=O)N1CCc2nc(C3CCN(C(=O)C4CC4)C3)nc(O)c2C1` (stereo unspecified) it is -1.94%.
Regarding `COc1ccc(-c2cccc(CC3(C(=O)O)CCOCC3)c2)cc1`, the cytotoxicity at 70.5 h was -4.34%.
With `O=C(NCCN1CCOCC1)Nc1cnc2cc(Cl)ccc2c1O` the figure was 12.7%; with `Cc1c(C2CCCN(C(=O)OC(C)(C)C)C2)n2c(nc1=O)CCC2` (stereo unspecified), -5.64%; with `O=C(NCCCO)Nc1cnc2cc(Cl)ccc2c1O`, -1.44%.
Take `O=C(C1CC1)N1CCCC(c2nc(O)cc(-c3ccncc3)n2)C1` (stereo unspecified): the cytotoxicity at 70.5 h was -0.584%.
With `COc1ccccc1CN1CCC(O)(Cn2ccc3ncccc32)CC1` the figure was -2.09%; with `O=c1[nH]c(N2CCOCC2)nc2c1CN(Cc1cccnc1)CC2`, 0.495%.
The figure for `O=C(CC1CCCCC1)NC1CCCc2nc(N3CCOCC3)ncc21` (stereo unspecified) is 0.0844%; for `Cc1ccc(=O)n(CC2(O)CCN(Cc3cnn(C)c3)CC2)n1` it is -3.09%; for `Cc1ccc(=O)n(CC2(O)CCN(Cc3c(F)cccc3F)CC2)n1` it is 0.803%.
With `O=C(NC1CCCc2nc(N3CCOCC3)ncc21)C1CCCC1` (stereo unspecified) the figure was -4.32%; with `O=C(Cc1ccsc1)N1CCCC(c2cc(C(F)F)n3ncnc3n2)C1` (stereo unspecified), 14.6%; with `O=C(O)C1(Cc2cc(-c3ccccc3F)no2)CCOCC1`, -10.6%.
Turning to `CC(C)N1CCC(Cc2cncc(-c3ccccc3C(=O)O)n2)C1` (stereo unspecified), the cytotoxicity at 70.5 h was -4.44%.
For the compound `CC(=O)N1CCc2ccccc2C1CC(=O)NCc1nnc(C)o1` (stereo unspecified), the cytotoxicity at 70.5 h amounted to 27.7%.
The figure for `Cc1cc(C(=O)NCCSC2CCCC2)no1` is -1.92%; for `CCCc1cc(C(=O)N2CCCN(c3cccnn3)CC2)[nH]n1` it is -0.666%.
The figure for `CC(C)Cc1cc(C(=O)N2CCCN(c3cccnn3)CC2)[nH]n1` is -5.32%.
Take `CC1CN(C(=O)c2ccc(C(N)=O)cc2)c2ccc(F)cc2O1` (stereo unspecified): the cytotoxicity at 70.5 h is 2.67%.
For `Cc1nccn1-c1ccc(CNS(=O)(=O)N2CCCCC2C)cn1` (stereo unspecified), the cytotoxicity at 70.5 h is -3.35%.
The figure for `CC(C)(NS(C)(=O)=O)C(=O)NCCc1csc2ccccc12` is 4.98%.
The figure for `COc1cccc(CC(C)NC(=O)NC(C)C)c1` (stereo unspecified) is -2.35%.
Consider `CCOC(=O)CCNC(=O)c1cccc2ccc(C)nc12`, for which the cytotoxicity at 70.5 h was 0.845%.
With `COc1ccc(C2CCCN2c2ccnc(C)c2Cl)c(OC)c1` (stereo unspecified) the figure was 33.7%; with `COC(=O)c1ccc(NC(=O)NC2CCc3[nH]ncc3C2)cc1` (stereo unspecified), 1.54%.
The figure for `O=C(Nc1ccc(-c2csnn2)cc1)N1CCCC1` is -11.8%.
With `COc1cccc(CC(C)NC(=O)NCCNC(C)=O)c1` (stereo unspecified) the figure was -1.81%; with `CCC1COCCN1C(=O)CNC(=O)c1ccc2c(c1)CCC2` (stereo unspecified), 37.1%.
On to `Cc1cccc2nc(CN3CCCC(Cn4ccnn4)C3)cc(=O)n12` (stereo unspecified), for which the cytotoxicity at 70.5 h was determined as 2.5%.
The figure for `COc1cccc(CC(=O)NCCc2nnc3n2CCCCC3)c1` is 18.7%; for `CNC(=O)C1CCCCN1C(=O)c1csc(-c2ccc(C)o2)n1` (stereo unspecified) it is -6.71%.
The figure for `NC(=O)C(NCc1ccc(Cl)s1)c1ccccc1` (stereo unspecified) is -7.49%.
Consider `CCC(C)NC(=O)CS(=O)(=O)Cc1cc(Cl)ccc1OC` (stereo unspecified), for which the cytotoxicity at 70.5 h was -12%.
With `CCN(Cc1ccco1)C(=O)C1=NN(c2ccccc2)C(=O)CN1` the figure was 17.6%; with `CNC(=O)C1CCCCN1C(=O)Cc1csc(-c2ccc(C)o2)n1` (stereo unspecified), -11.8%.
Consider `Cc1noc(C)c1CN(C)C(=O)C1CCN(S(N)(=O)=O)CC1`, for which the cytotoxicity at 70.5 h is -1.71%.
`Cc1noc(C)c1CN(C)C(=O)C1CCCCN1S(C)(=O)=O` (stereo unspecified): the cytotoxicity at 70.5 h stood at 13.6%.
The figure for `CC(C)(C)n1ncc(C(=O)NCCCC(N)=O)c1C(F)(F)F` is -9.38%; for `Cc1nc(C2(O)CCCNCC2)sc1CCOc1ccccc1Cl` (stereo unspecified) it is 1.01%.
With `Cc1nc(C2(O)CCCNCC2)sc1CCOc1ccccc1` (stereo unspecified), the cytotoxicity at 70.5 h is -9.24%.
With `Cc1nc(C2(O)CCCNCC2)sc1CCOc1ccc(F)cc1` (stereo unspecified) the figure was 16.3%.
`Cc1ccc(Cc2cnc(C3CCNCC3)cn2)cc1`: the cytotoxicity at 70.5 h is -12.9%.
With `CC(C)CC(=O)NCCn1nc(C2CCNC2)c2cccnc21` (stereo unspecified) the figure was -2.13%; with `COCCC(=O)NCCn1nc(C2CCNC2)c2cccnc21` (stereo unspecified), 14.1%.
With `Cc1ccc2c(c1)CN(C(=O)c1ccncc1)C(CN(C)C)CO2` (stereo unspecified) the figure was -0.528%; with `Cc1ccc(CN2CCC(O)(Cn3ccc4ncccc43)CC2)o1`, -0.742%.
The figure for `OC1(Cn2ccc3ncccc32)CCN(Cc2ccccc2F)CC1` is 2.31%; for `COc1ccc(C(=O)N2Cc3cc(C)ccc3OCC2CN(C)C)cc1` (stereo unspecified) it is 3.28%; for `CCn1cncc1CN(Cc1ccc(OC)cc1OC)CC1CCCO1` (stereo unspecified) it is -3.49%.
As for `Cc1cccnc1[C@]1(O)CC[C@H]2CN(Cc3cccc(Cl)c3Cl)C[C@H]21`, the cytotoxicity at 70.5 h was -3.29%.

The values are drawn from ChEMBL document CHEMBL3507680, “University of Dundee, Gates Library screen for HepG2 cell viability”.
